The values below come from US20160089464A1, “MALODOR REDUCTION COMPOSITIONS” (The Procter & Gamble Company, priority 2014, published 2016).

Molecules are shown by their SMILES.

The nature of one data set: Comment Code material properties: vapor pressure, ClogP, probability of ingredient color instability, odor detection threshold, melamine formaldehyde PMC headspace response ratio and leakage, liquid dish neat product liquid-air partition coefficient. The conditions noted are these: Table 1 materials; each letter of the code is one property class (vapor pressure, ClogP, color instability, odor detection threshold, PMC headspace ratio, PMC leakage, liquid dish liquid-air partition coefficient). The data set is classed as physicochemical.
On to `CCCC(O)CCC1C(C)CCCC1(C)C` (stereo not shown) [Material 1063], for which the “Comment Code” value is “DEFHJK”.
For `CC(=O)OC1CC2CCC1(C)C2(C)C` (stereo not shown) [Material 604], the “Comment Code” value was “ADEFHIJKL”.
Consider `C[C@@H]1CCC=C2CC[C@@H](C(C)(C)O)C[C@]21C` [Material 1107], for which the “Comment Code” value is recorded as “DEFHJK”.
On the same count and under the same terms, for `CCCC(=O)OCCc1ccccc1` [Material 831] the value was “DEFHJK”; for `OCCc1ccccc1` [Material 955], “BCEFGIK”; for `COC(Cc1ccccc1)OC` [Material 627], “DHJK”.
For `COC(=O)c1ccccc1N=CCC(C)CCCC(C)(C)O` (stereo not shown) [Material 661], the “Comment Code” value is on record as “DEFHJ”.
Take `CC(C)(C)C(=O)OC1CC2CC1C1CC=CC21` (stereo not shown) [Material 978]: the “Comment Code” value is reported as “DEFHJK”.
Consider `O=C(OCc1ccccc1)c1ccccc1` [Material 653], for which the “Comment Code” value was “DHJ”.
Turning to `CCCCCC1C(=O)CCC1C` (stereo not shown) [Material 1053], the “Comment Code” value was “BDFHIJKL”.
As to `CC1C(C)(C)C2CCC3CC(C)(C)OC3C2C1(C)C` (stereo not shown) [Material 679], the “Comment Code” value was “ADEFHJK”.
Turning to `C/C=C/c1cc(OC)c(OC)cc1OC` [Material 924], the “Comment Code” value was “BCFGJK”.
In the case of `CCC(C)CCC(C)(CC)OC(C)=O` (stereo not shown) [Material 821], the “Comment Code” value was “ADEFHIJKL”.
For `CC1C(=O)CC2(C)CCCC(C)(C)C23CC13` (stereo not shown) [Material 804], the “Comment Code” value is on record as “BDEFHJK”.
Still for that read-out and setting: for `CC(C)OCCc1ccccc1` [Material 950] the value was “ACEFHJKL”.
The same measure, in the same setting: for `C=CC(=C)CCC=C(C)CCC=C(C)C` [Material 628] the value was “DEFHJK”.
Still for that read-out and setting: for `CC(CO)CCCc1ccccc1` (stereo not shown) [Material 1012] the value was “DEFHJK”; for `C=C/C(C)=C/CC=C(C)C` [Material 1077], “ADGIKL”.
On to `CC(C)(C)c1ccc(CCC=O)cc1` [Material 601], for which the “Comment Code” value is reported as “BDHJK”.
For `CC12CCC(CC1)C(C)(C)S2` [Material 873], the “Comment Code” value is on record as “ADEFHIJKL”.
Regarding `COC1(C)CCC23CC1C(C)(C)C2CCC3C` (stereo not shown) [Material 565], the “Comment Code” value is reported as “ADEFHJK”.
Still for that read-out and setting: in the case of `O=C(Cc1ccccc1)OCc1ccccc1` [Material 922] it was “DHJ”; in that of `COc1cc(C)ccc1C(C)C` [Material 1062], “ADHIJKL”; in that of `CC(C)Cc1ccc(CC(C)C=O)cc1` (stereo not shown) [Material 1033], “DHJK”.
`COc1ccc(C=O)c(OC)c1OC` [Material 733]: the “Comment Code” value is recorded as “BCGI”.
Same read-out and setting: in the case of `C=C1C(O)CC2CC1C2(C)C` (stereo not shown) [Material 974] it was “BCEFGIJKL”; in that of `CCCCCC=CC=CC(=O)OCC` [Material 951], “BDEFHJK”.
As for `CCOC(=O)CC(O)(CC(=O)OCC)C(=O)OCC` [Material 1091], the “Comment Code” value is “CEFGJ”.
The same measure, in the same setting: in the case of `CC1=CCOC(c2ccccc2)C1` (stereo not shown) [Material 1016] it was “BCEFGJK”; in that of `CC(C)=CCCC(C)C12CC=C(C)C1C2` (stereo not shown) [Material 926], “DEFHJKL”.
The same measure, in the same setting: in the case of `CC(C)=CCCC1(C)C2CC=C(C)C1C2` (stereo not shown) [Material 720] it was “BDEFHJKL”; in that of `CCCCCCCC(C)=O` [Material 840], “ADFHIKL”.
The same measure, in the same setting: in the case of `C=C(C)C1CC=C(C)C(OC(C)=O)C1` (stereo not shown) [Material 577] it was “BDHIJK”; in that of `CCCCCCCCCCO` [Material 868], “BDEFGJK”; in that of `C/C=C1/CC2CC1C1CCCOC21` (stereo not shown) [Material 1008], “BCEFHJKL”.
For `CC(C)CCc1ccc2c(c1)OCC(=O)CO2` [Material 658], the “Comment Code” value was “DHJ”.
Take `CCCCCCCC#N` [Material 578]: the “Comment Code” value is on record as “ACEFGIKL”.
As to `C=C1CCCC(C)(C)C2C=C(C)CCC12` (stereo not shown) [Material 707], the “Comment Code” value was “BDEFHJK”.
In the case of `CC1=CC(C)C2(CCCC(C)(C)C2=O)CC1` (stereo not shown) [Material 1022], the “Comment Code” value is reported as “DHIJK”.
On the same count and under the same terms, in the case of `CCCCC/C=C/CCC=O` [Material 1073] it was “ADHKL”; in that of `CC1=CCC(CCC(C)CO)C1(C)C` (stereo not shown) [Material 600], “DEFHJK”.
Turning to `CC1=CC[C@@H]2[C@@]3(C)CCCC(C)(C)[C@@H]3CC[C@@]2(C)O1` [Material 1029], the “Comment Code” value is “DEFHJK”.
Still for that read-out and setting: in the case of `CC1CCC2(O)C(C)(C)C3CCC2(C)C1C3` (stereo not shown) [Material 933] it was “DEFHIJK”; in that of `CC1(O)CCC2=C(CCCC2(C)C)C1` (stereo not shown) [Material 676], “DEFHJK”; in that of `CC(=CCC1CC=C(C)C1(C)C)CO` (stereo not shown) [Material 908], “CHJK”.
On to `C/C(=C\C#N)CCc1ccccc1` [Material 894], for which the “Comment Code” value is on record as “CEFHJK”.
As to `CC(C)C(=O)OC1CC2CCC1(C)C2(C)C` (stereo not shown) [Material 603], the “Comment Code” value is “BDEFHIJK”.
In the case of `CCCCCCCCCC=O` [Material 584], the “Comment Code” value was “ADHKL”.
Regarding `CC(=O)OC12CCCC(C)(CCC3C1CC3(C)C)C2` (stereo not shown) [Material 573], the “Comment Code” value is “DEFHJK”.
For the compound `CC(C)=CCCC(C)c1ccc(C)cc1` (stereo not shown) [Material 713], the “Comment Code” value is on record as “DEFHJK”.

Still in this data set, the particulars now being: cell strings several class symbols together; each letter is one property class of L1.
For the compound `CCCCCCC=O` [Material 284], the “Comment Code” value was “ACHIKL”.
The same measure, in the same setting: in the case of `CC(C)=CCC/C(C)=C/COC(=O)c1ccccc1` [Material 310] it was “DFHJ”.
As for `C[C@@H]1CCC=C2CC[C@@H](C(C)(C)O)C[C@]21C` [Material 1107], the “Comment Code” value was “DEFHJK”.
On the same count and under the same terms, for `CC(=O)OC(C)CC(C)(C)c1ccccc1` (stereo not shown) [Material 1134] the value was “BDFHJK”; for `COC(Cc1ccccc1)OC` [Material 627], “DHJK”.
The same measure, in the same setting: for `CC(C)(C)C(=O)OC1CC2CC1C1CC=CC21` (stereo not shown) [Material 978] the value was “DEFHJK”; for `CC1C(C)(C)C2CCC3CC(C)(C)OC3C2C1(C)C` (stereo not shown) [Material 679], “DEFHJK”.
For the compound `Cc1cc2c(cc1C#N)C(C)(C)C(C)C(C)C2(C)C` (stereo not shown) [Material 1142], the “Comment Code” value was “DHJ”.
Take `CC1C(=O)CC2(C)CCCC(C)(C)C23CC13` (stereo not shown) [Material 804]: the “Comment Code” value is recorded as “BDEFHJK”.
Same read-out and setting: for `C=C1C2CCC(C)(C)C1CCC(OC)C2` (stereo not shown) [Material 7] the value was “BDEFHJK”; for `CC(C)=CCCC(C)CCO` (stereo not shown) [Material 899], “BCHIJKL”.
On the same count and under the same terms, for `COC(=O)Cc1ccccc1` [Material 97] the value was “ACEFHIKL”; for `CC1=CC[C@H]2C[C@@H]1C2(C)C` [Material 903], “ADEFGIJKL”; for `COC(=O)C=C(C)CCC=C(C)C` [Material 111], “BCHJKL”.
As to `CCCCCCCC(=O)OCCC(C)C` [Material 237], the “Comment Code” value was “DEFHJK”.
The same measure, in the same setting: in the case of `CC(C)C(=O)OC1CC2CC1C1C=CCC21` (stereo not shown) [Material 487] it was “DEFHJK”; in that of `C=C(C)C(=O)OCCc1ccccc1` [Material 971], “DHJK”; in that of `COC1(C)CCC23CC1C(C)(C)C2CCC3C` (stereo not shown) [Material 565], “BDEFHJK”.
For `CC(C)(C)C1CCCCC1O` (stereo not shown) [Material 1122], the “Comment Code” value is given as “ACGIJKL”.
Regarding `O=C/C=C/c1ccccc1` [Material 554], the “Comment Code” value was “ACHIK”.
Same read-out and setting: for `CC1=C(C/C=C(\C)C=O)C(C)(C)CCC1` [Material 602] the value was “DHJK”; for `CCC(C)c1nccnc1OC` (stereo not shown) [Material 845], “BCEFGIK”; for `CC(=O)CCc1ccccc1` [Material 640], “ACEFGIK”.
Still for that read-out and setting: for `CC(=O)CCC1C(C)=CCCC1(C)C` (stereo not shown) [Material 448] the value was “BDHIJK”; for `C=CCOC(=O)COC1CCCCC1` [Material 918], “CHJK”.
The same measure, in the same setting: for `C=CC(C)(CCC=C(C)C)OC(C)=O` (stereo not shown) [Material 154] the value was “BDHJK”; for `C=CCOCCc1ccccc1` [Material 744], “ACEFHK”; for `C[C@H]1[C@@H]2C[C@H](C[C@@]13C=CC(=O)CC3)C2(C)C` [Material 1143], “DEFHJK”.
`CC(C)CCCC(C)CC=O` (stereo not shown) [Material 1051]: the “Comment Code” value is listed as “ADGIJKL”.
Take `C/C=C(\C)C(=O)OCCCCCC` [Material 909]: the “Comment Code” value was “BDEFHJKL”.
As for `CC1(C)C2CCC3(CO3)C1C2` (stereo not shown) [Material 617], the “Comment Code” value is listed as “ACEFGIJKL”.
Regarding `COC1CC2CC1C1CC(C=O)CC21` (stereo not shown) [Material 1027], the “Comment Code” value is reported as “CHJK”.
Take `CC/C=C\CCOC(=O)CCC` [Material 540]: the “Comment Code” value is reported as “ADEFHJKL”.
In the case of `CC1=CC(C)C2(CCCC(C)(C)C2=O)CC1` (stereo not shown) [Material 1022], the “Comment Code” value is “DHIJK”.
The same measure, in the same setting: for `CC1CCC2(CCCC(=O)O2)C1` (stereo not shown) [Material 107] the value was “BCEFGIKL”; for `C[C@@H]1CC[C@H]2[C@@H]1[C@H]1[C@@H](CC[C@]2(C)O)C1(C)C` [Material 1140], “DEFHJK”.
Take `CC1=CC[C@@H]2[C@@]3(C)CCCC(C)(C)[C@@H]3CC[C@@]2(C)O1` [Material 1029]: the “Comment Code” value is listed as “DEFHJK”.
The same measure, in the same setting: for `CC(=O)OC1CC2CC1C1CCCC21` (stereo not shown) [Material 441] the value was “DEFHJKL”.
On the same count and under the same terms, for `CC(C)CCCC(C)CC=O` (stereo not shown) [Material 27] the value was “ADGIJKL”; for `CC1CCC2(O)C(C)(C)C3CCC2(C)C1C3` (stereo not shown) [Material 933], “DEFHIJK”.
Same read-out and setting: in the case of `C=CC(C)=CCC1OC1(C)C` (stereo not shown) [Material 73] it was “ADGIJKL”; in that of `CC(=O)OCCC1CCCCC1` [Material 481], “BDEFHJKL”; in that of `CC1=CC(C)C2C(CCC(C)(C)C2O)C1` (stereo not shown) [Material 39], “DEFHIJK”.
Regarding `CC(C)CCCC(C)CCO` (stereo not shown) [Material 820], the “Comment Code” value is reported as “BDEFGIJKL”.
On the same count and under the same terms, in the case of `CC(=O)OC1CC2CC1C1CC=CC21` (stereo not shown) [Material 281] it was “CEFGJK”; in that of `CC(OC=O)C1CCCC(C)(C)C1` (stereo not shown) [Material 662], “ADEFHIJKL”.
The same measure, in the same setting: for `C=CC1(C)Cc2occ(C)c2CC1C(=C)C` (stereo not shown) [Material 488] the value was “DHJK”.
Turning to `CC(=O)OC12CCCC(C)(CCC3C1CC3(C)C)C2` (stereo not shown) [Material 573], the “Comment Code” value is recorded as “DEFHJK”.

Still in this data set, the particulars now being: letter codes A-L: vapor pressure, ClogP, probability of ingredient color instability, odor detection threshold, PMC headspace response ratio, PMC leakage, liquid dish liquid-air partition coefficient; Table 1 materials with at least one MORV from 1 to 5.
Take `Cc1cc2c(cc1C#N)C(C)(C)C(C)C(C)C2(C)C` (stereo not shown) [Material 1142]: the “Comment Code” value was “DHJ”.
As for `CCC=CCCOC(=O)C(C)C` [Material 1125], the “Comment Code” value is reported as “ADEFHJKL”.
As for `COC(=O)OC1CC/C=C\CCC1` (stereo not shown) [Material 1139], the “Comment Code” value is given as “BCHJKL”.
On to `C[C@H]1[C@@H]2C[C@H](C[C@@]13C=CC(=O)CC3)C2(C)C` [Material 1143], for which the “Comment Code” value is given as “DEFHJK”.
Same read-out and setting: in the case of `C[C@@H]1CC[C@H]2[C@@H]1[C@H]1[C@@H](CC[C@]2(C)O)C1(C)C` [Material 1140] it was “DEFHJK”.
